Measurements taken from PubChem BioAssay AID489033 (Sanford-Burnham Center for Chemical Genomics, 2010).
The source made the active and inactive calls. The rule behind the calls is not given here.

System: 697B B-cell line, NF-kB luciferase reporter luminescence
Test: NF-kB reporter inhibition in B cells, dose response, selectivity assay for T-cell antigen receptor NF-kB inhibitors, 697B cells, luminescence (AID 489033)

Row | SMILES | IC50
1 | COc1cc(OC)c(/C=C2\C(=O)Nc3ccccc32)c(OC)c1 | 62.6 µM (inactive)
2 | COc1cccc(N2CCN(c3ncnc4c3cnn4-c3ccc(C)cc3C)CC2)c1 | 1.58 µM
3 | Cc1ccc(O)c(NC(=O)c2cc(-c3ccccc3)on2)c1 | > 80 µM (inactive)
4 | CCOc1cccc(-c2nnc3n2N=C(c2cc(OC)ccc2OC)CS3)c1 | > 80 µM (inactive)
5 | O=C(Nc1ccc([N+](=O)[O-])cc1)Nc1ccon1 | > 80 µM (inactive)
6 | O=C(Sc1cccc2cccnc12)c1ccc(F)cc1 | 1.03 µM
7 | Cc1ccccc1NC1=C/C(=N\S(=O)(=O)c2cccs2)c2ccccc2C1=O | 6.69 µM
8 | COc1cccc(N2CCN(C(=O)c3cn(Cc4ccccc4)nc3-c3cccnc3)CC2)c1 | > 80 µM (inactive)
9 | CC(C)c1ccc(/C=N/Nc2ccc(C(=O)O)cc2)cc1 | 10.7 µM
10 | Cc1ccc(NC(=O)c2cc3ccccc3oc2=O)cc1S(=O)(=O)N(C)C | < 0.16 µM
11 | COc1ccc(NS(=O)(=O)c2cc(-c3cnc(C4CC4)o3)ccc2C)cc1 | > 80 µM (inactive)
12 | CCCC(=O)Nc1nc2ccc(NC(=O)c3c(F)c(F)c(OC)c(F)c3F)cc2s1 | > 80 µM (inactive)
13 | Cc1ccc2c(c1)COc1c3ccc(C(=O)O)cc3nn1-2 | 13.4 µM
14 | NS(=O)(=O)c1ccc(Sc2nc3ccccc3s2)c([N+](=O)[O-])c1 | 1.34 µM
15 | CC1C/C(=C/c2ccncc2)C(=O)/C(=C/c2ccncc2)C1 (stereo not given) | 8.39 µM
16 | CC(=O)Nc1ccc(S(=O)(=O)N2CCSc3ccccc32)cc1 | > 80 µM (inactive)
17 | CCOC(=O)Nc1nc(-c2ccccc2)c(C(=O)c2ccc(Cl)cc2)s1 | > 80 µM (inactive)
18 | CCn1c2ccccc2c2cc(NC(=O)c3cc(OC)cc(OC)c3)ccc21 | > 80 µM (inactive)
19 | COc1cc(Cn2c(-c3nonc3N)nc3ccccc32)ccc1C | > 80 µM (inactive)
20 | O=C(Nc1cccc(C(F)(F)F)c1)c1sc(Cl)nc1C(F)(F)F | 1.37 µM
21 | Clc1cccc(Cl)c1/C=N/Nc1c(Cl)cncc1Cl | > 80 µM (inactive)
22 | CCOCCOC(=O)c1[nH]c2c(c1C)C(=O)CC(c1ccccc1)C2 (stereo not given) | > 80 µM (inactive)
23 | CCOc1ccccc1C1CC(=O)Nc2cc3c(cc21)OCCO3 (stereo not given) | > 80 µM (inactive)
24 | CCCCCCCCCCn1ccc(=N)cc1 | 11.7 µM

Row | SMILES | IC50
25 | COc1ccc(-[n+]2c(-c3ccccc3)cc(-c3ccc(C)cc3)cc2-c2ccccc2)cc1 | 8.23 µM
26 | CCOC(=O)N=Nc1c2ccccc2c2nc3no[nH]c3nc12 | 2.28 µM
27 | O=C1CC(c2cc(Br)ccc2F)c2cc3c(cc2N1)CCC3 (stereo not given) | > 80 µM (inactive)
28 | COc1cc(/C=C/[N+](=O)[O-])ccc1OCc1cccc(C(=O)O)c1 | 12 µM
29 | C/C=C(\C)C(=O)N[C@@H](c1ccccc1)[C@@H](O)C(=O)O[C@H]1C[C@@]2(O)[C@@H](OC(=O)c3ccccc3)C3[C@](C)(C(=O)[C@H](OC(C)=O)C(=C1C)C2(C)C)[C@@H](O)C[C@H]1OC[C@@]31OC(C)=O (stereo not given in full) | > 80 µM (inactive)
30 | Cc1ccc(COC(=O)c2cc([N+](=O)[O-])ccc2N2CCOCC2)cc1 | > 80 µM (inactive)
31 | Cc1ccc(C(=O)c2cc([N+](=O)[O-])ccc2N2CCCCC2)c(C)c1 | > 80 µM (inactive)
32 | CC(=O)O[C@H]1C(=O)[C@@]2(C)[C@H]([C@H](OC(=O)c3ccccc3)[C@]3(O)C[C@H](OC(=O)[C@H](O)[C@@H](NC(=O)c4ccccc4)c4ccccc4)C(C)=C1C3(C)C)[C@]1(OC(C)=O)CO[C@@H]1C[C@@H]2O | > 80 µM (inactive)
33 | CCCC(=O)NC(c1ccc(C(C)C)cc1)c1ccc2cccnc2c1O (stereo not given) | > 80 µM (inactive)
34 | O=C(NCCc1ccccc1)c1ccc2c(c1)OCCO2 | 1.12 µM
35 | Cc1cc(NC(=O)COC(=O)c2ccc(S(=O)(=O)N3CCCc4ccccc43)cc2)no1 | > 80 µM (inactive)
36 | O=C(N/N=C/c1c(O)ccc2ccccc12)c1cccc(C(F)(F)F)c1 | 18.6 µM
37 | CCOC(=O)C(C)Oc1cccc2c(=O)n(CC(=O)NCc3ccccc3)ccc12 (stereo not given) | > 80 µM (inactive)
38 | COc1ccc(/C=c2/sc3n(c2=O)C(c2ccccc2OC)C2=C(N=3)c3ccccc3CC2)cc1O (stereo not given) | > 80 µM (inactive)
39 | Cc1[nH]n(-c2ccccc2)c(=O)c1/C=N/Nc1nncc(-c2ccccc2)n1 | > 80 µM (inactive)
40 | CCCCCCCCCCn1c2c(c(=N)c3c1CCC3)CCC2 | 2.68 µM
41 | COc1cc2c(cc1O)CC[C@@H]1[C@@H]2CC[C@]2(C)[C@@H](O)CC[C@@H]12 | > 80 µM (inactive)
42 | C[C@]12CC[C@H]3[C@@H](CC[C@]4(O)C[C@@H](O)CC[C@]34C=O)[C@@]1(O)CC[C@@H]2C1=CC(=O)OC1 | 1.13 µM
43 | O=C(N[C@@H](Cc1ccccc1)C(=O)CCl)OCc1ccccc1 | 5.69 µM
44 | Cc1ccc(Nc2nc(-c3c(C)nc4ncccn34)cs2)cc1 | > 80 µM (inactive)
45 | C(=N\Nc1nc2ccccc2s1)/c1ccccn1 | 0.39 µM
46 | COc1ccc(Cl)cc1NC(=O)CN(C)CC(=O)Nc1ccccc1N1CCOCC1 | > 80 µM (inactive)
47 | CCSc1nc2ccccc2n1C(=O)/C=C\c1ccc(OC)c(OC)c1 | 4.67 µM
48 | COc1cc2nc(CN3CC=C(c4ccccc4)CC3)[nH]c(=O)c2cc1OC | 13.8 µM

Row | SMILES | IC50
49 | Cc1ccc(C(=O)Nc2cc3ccccc3oc2=O)cc1 | 2.11 µM
50 | COC(=O)c1ccccc1NC(=O)Cn1c(-c2nonc2N)nc2ccccc21 | > 80 µM (inactive)
51 | c1ccc2c(c1)CCN(c1ncnc3c1[nH]c1ccccc13)C2 | 16.8 µM
52 | C=C1C(O)[C@@H]2O[C@]3(CC[C@H](/C=C/C(C)[C@@H]4CC(C)=CC5(O[C@H](C[C@@](C)(O)CO)CCC5O)O4)O3)CC[C@H]2O[C@@H]1C(O)CC(C)[C@H]1OC2(CCCCO2)CCC1C (stereo not given in full) | 3.19 µM
53 | CCOc1ccc(S(=O)(=O)NCc2ccccn2)cc1NC(=O)c1ccccc1 | > 80 µM (inactive)
54 | CC(C)Oc1ccccc1C1CC(=O)Nc2cc3c(cc21)OCCO3 (stereo not given) | 59.5 µM (inactive)
55 | Cc1ccc(C(=O)c2cc([N+](=O)[O-])ccc2N2CCCCC2)cc1 | > 80 µM (inactive)
56 | Cc1sc2ncnc(NC3CCN(Cc4ccccc4)CC3)c2c1C | 2.51 µM
57 | O=C(c1cn(Cc2ccccc2)nc1-c1ccccc1)N1CCN(c2ccccn2)CC1 | > 80 µM (inactive)
58 | CCCOCCOC(=O)c1[nH]c2c(c1C)C(=O)CC(c1cc(OC)ccc1OC)C2 (stereo not given) | > 80 µM (inactive)
59 | O=C(Nc1ccc(Cl)c(S(=O)(=O)N2CCOCC2)c1)c1ccc(OCC2CCCO2)cc1 (stereo not given) | 4.54 µM
60 | Cc1ccc(/C=C/c2ccc(N(C)C)cc2)[n+](C)c1 | > 80 µM (inactive)
61 | COc1ccc(C(=O)NNC(=O)c2ccccn2)cc1 | 5.2 µM
62 | CCCCCCCOc1ccc(OC(=O)c2cccnc2)cc1 | > 80 µM (inactive)
63 | COc1cc(C(=O)OCCc2cc3ccccc3c(=O)o2)cc(OC)c1OC | > 80 µM (inactive)
64 | CCc1cc2c(=O)nc3n(c2s1)Cc1ccccc1/C3=C(/O)c1cccc([N+](=O)[O-])c1 | > 80 µM (inactive)
65 | CC(C)n1c(CN(C)Cc2ccccc2)nc2c1c(=O)n(C)c(=O)n2C | 43.7 µM (inactive)
66 | COc1ccc(-n2nnnc2-c2cccc(OC)c2)cc1 | > 80 µM (inactive)
67 | CCO[C@H]1OC(C(=O)NCc2nc3ccccc3[nH]2)=C[C@@H](C2CC2)[C@@H]1CCCO | > 80 µM (inactive)
68 | COc1ccc2nc(C)cc(N/N=C/c3ccc(F)cc3)c2c1 | 2.08 µM
69 | COc1ccc(S(=O)(=O)N2N=C(C)Oc3ccccc3C2=O)cc1 | > 80 µM (inactive)
70 | CC1(C)CC(N2CCN(C(c3ccccc3)c3ccccc3)CC2)=CC(=[N+]2CCCCC2)C1 | 1.64 µM
71 | Cc1cc(C)cc(NS(=O)(=O)c2ccc(-c3cnc(C4CC4)o3)cc2)c1 | 53.1 µM (inactive)
72 | COc1ccc(CCN2C(=O)C3C4C=CC(C3C2=O)C2C(=O)N(CCc3ccc(OC)c(OC)c3)C(=O)C42)cc1OC (stereo not given) | > 80 µM (inactive)

Row | SMILES | IC50
73 | CCn1nc(C)c(CNC(=O)c2ccc(OC3CCN(Cc4ccccn4)CC3)cc2)c1C | > 80 µM (inactive)
74 | CC1(C)Cc2c(sc(NC(=O)COc3cccc4ccccc34)c2C#N)C(C)(C)N1 | 8.2 µM
75 | CCN(CC)c1ccc(/C=C/c2ccc3ccc(OC)cc3[n+]2CC)cc1 | 2.84 µM
76 | Cc1cc(C)cc(NC(=O)c2cc(C)n(Cc3cccs3)c2C)c1 | 24.1 µM (inactive)
77 | Cc1cc(C)cc(C(=O)N2CC(=O)Nc3ccccc32)c1 | > 80 µM (inactive)
78 | Cc1csc2sc(-c3ccnc(SCC(=O)NCc4ccccc4)n3)c(C)c12 | > 80 µM (inactive)
79 | CCOC(=O)CSC1=C(C#N)C(c2ccc(C)s2)CC(=O)N1 (stereo not given) | > 80 µM (inactive)
80 | O=C(Nc1ccc(C(F)(F)F)cc1)c1cccn(Cc2ccc3c(c2)OC(F)(F)O3)c1=O | > 80 µM (inactive)
81 | COc1ccc(NC(=O)/C(Cl)=C(/Cl)S(=O)Cc2ccc(Cl)cc2)cn1 (stereo not given) | 0.18 µM
82 | N=c1ccn(CC(=O)c2ccc(-c3ccccc3)cc2)cc1 | 19.2 µM
83 | C=CC[C@@H](CC/C=C/C=C/CC/C=C\[C@@H]1CSC([C@@H]2C[C@@H]2C)=N1)OC | 15.3 µM
84 | Cc1cccc(OCCNC(=O)c2ccc(Cl)c(S(=O)(=O)NCc3cccnc3)c2)c1 | > 80 µM (inactive)
85 | COc1ccccc1NC(=O)c1cnc(Nc2ccccc2OC)c2ccccc12 | > 80 µM (inactive)
86 | COc1cc(C(=O)N2CCN(c3cccc(C)c3C)CC2)cc(OC)c1OC | > 80 µM (inactive)
87 | CNC[C@@H](CC1CCCCC1)NC[C@H](CC(C)C)NCCc1cccc(C(F)(F)F)c1 | 4.88 µM
88 | Cc1cc(C(C)(C)C)cc(C)c1C[n+]1ccc2ccccc2c1 | > 80 µM (inactive)
89 | N#C/C(=C\c1ccc(OCc2ccc(C(=O)O)cc2)cc1)C(=O)N1CCOCC1 | 5.92 µM
90 | N#Cc1ccc(-c2cccs2)nc1SCc1cccnc1 | > 80 µM (inactive)
91 | CCOC(=O)c1[nH]c(C)c(C(=O)Nc2cc(OC)ccc2OC)c1C | > 80 µM (inactive)
92 | O=C(Nc1nc(-c2ccccn2)cs1)c1ccc(Cl)s1 | < 0.16 µM
93 | CC[C@@]1(O)C(=O)OCc2c1cc1n(c2=O)Cc2cc3c(N)cccc3nc2-1 | 0.62 µM
94 | CCOc1ccccc1C1CC(=O)Nc2cc(C)c(C)cc21 (stereo not given) | > 80 µM (inactive)
95 | CC/C=C/CC(=O)N[C@@H](c1ccccc1)[C@@H](O)C(=O)O[C@H]1C[C@@]2(O)[C@@H](OC(=O)c3ccccc3)C3[C@](C)(C(=O)[C@H](OC(C)=O)C(=C1C)C2(C)C)[C@@H](O)C[C@H]1OC[C@@]31OC(C)=O (stereo not given in full) | > 80 µM (inactive)
